Test results: ChEMBL document CHEMBL5724806, “Unraveling interindividual differences and functional consequences of gut microbial metabolism of immunosuppressants” (2024)

What was measured:
Format in all cases: ADME
[1] = (§1) The drug is tested on Streptococcus mitis strain: DSM12643 for biotransformation under anaerobic condition. The drug concentrations were measured over 6 timepoints collected between 0 and 12 hours of incubation by liquid-chromatography-coupled mass spectrometry (LC–MS); design: dose 5 uM, timepoint 0, 1.5, 3, 6, 9, 12 hours; details: 5 µM
[2] = The drug is tested on Parabacteroides distasonis strain: DSM20701 for biotransformation under anaerobic condition. The drug concentrations were measured over 6 timepoints collected between 0 and 12 hours of incubation by liquid-chromatography-coupled mass spectrometry (LC–MS); design: dose 5 uM, timepoint 0, 1.5, 3, 6, 9, 12 hours; details: 5 µM
[3] = as §1, with “the gut metagenome community of A-03 with ENA study accession number: PRJEB31790” for “Streptococcus mitis strain: DSM12643”, “7” for “6”; design: dose 5 uM, timepoint 0, 0.75, 1.5, 3, 6, 9, 12 hours; details: 5 µM
[4] = The drug is tested on Bacteroides uniformis strain: DSM6597 for biotransformation under anaerobic condition. The drug concentrations were measured over 6 timepoints collected between 0 and 12 hours of incubation by liquid-chromatography-coupled mass spectrometry (LC–MS); design: dose 5 uM, timepoint 0, 1.5, 3, 6, 9, 12 hours; details: 5 µM
[5] = as §1, with “the gut metagenome community of T-03 with ENA study accession number: PRJEB31790” for “Streptococcus mitis strain: DSM12643”, “7” for “6”; design: dose 5 uM, timepoint 0, 0.75, 1.5, 3, 6, 9, 12 hours; details: 5 µM
[6] = (§2) The drug is tested on Escherichia coli strain: DSM27469 for biotransformation under microaerobic condition. The drug concentrations were measured over 6 timepoints collected between 0 and 12 hours of incubation by liquid-chromatography-coupled mass spectrometry (LC–MS); design: dose 5 uM, timepoint 0, 1.5, 3, 6, 9, 12 hours; details: 5 µM
[7] = The drug is tested on Odoribacter splanchnicus strain: DSM20712 for biotransformation under anaerobic condition. The drug concentrations were measured over 6 timepoints collected between 0 and 12 hours of incubation by liquid-chromatography-coupled mass spectrometry (LC–MS); design: dose 5 uM, timepoint 0, 1.5, 3, 6, 9, 12 hours; details: 5 µM
[8] = The drug is tested on Blautia hansenii strain: DSM20583 for biotransformation under anaerobic condition. The drug concentrations were measured over 6 timepoints collected between 0 and 12 hours of incubation by liquid-chromatography-coupled mass spectrometry (LC–MS); design: dose 5 uM, timepoint 0, 1.5, 3, 6, 9, 12 hours; details: 5 µM
[9] = The drug is tested on Parabacteroides merdae strain: DSM19495 for biotransformation under anaerobic condition. The drug concentrations were measured over 6 timepoints collected between 0 and 12 hours of incubation by liquid-chromatography-coupled mass spectrometry (LC–MS); design: dose 5 uM, timepoint 0, 1.5, 3, 6, 9, 12 hours; details: 5 µM
[10] = The drug is tested on Coprococcus comes strain: ATCC27758 for biotransformation under anaerobic condition. The drug concentrations were measured over 6 timepoints collected between 0 and 12 hours of incubation by liquid-chromatography-coupled mass spectrometry (LC–MS); design: dose 5 uM, timepoint 0, 1.5, 3, 6, 9, 12 hours; details: 5 µM
[11] = The drug is tested on Lactobacillus fermentum strain: DSM20052 for biotransformation under microaerobic condition. The drug concentrations were measured over 6 timepoints collected between 0 and 12 hours of incubation by liquid-chromatography-coupled mass spectrometry (LC–MS); design: dose 5 uM, timepoint 0, 1.5, 3, 6, 9, 12 hours; details: limosilactobacillus fermentum, 5 µM
[12] = The drug is tested on Streptococcus anginosus strain: DSM20563 for biotransformation under anaerobic condition. The drug concentrations were measured over 6 timepoints collected between 0 and 12 hours of incubation by liquid-chromatography-coupled mass spectrometry (LC–MS); design: dose 5 uM, timepoint 0, 1.5, 3, 6, 9, 12 hours; details: 5 µM
[13] = The drug is tested on Eubacterium hallii strain: DSM3353 for biotransformation under anaerobic condition. The drug concentrations were measured over 6 timepoints collected between 0 and 12 hours of incubation by liquid-chromatography-coupled mass spectrometry (LC–MS); design: dose 5 uM, timepoint 0, 1.5, 3, 6, 9, 12 hours; details: anaerobutyricum hallii, 5 µM
[14] = as §2, with “the gut metagenome community of A-10 with ENA study accession number: PRJEB31790” for “Escherichia coli strain: DSM27469”, “7” for “6”; design: dose 5 uM, timepoint 0, 0.75, 1.5, 3, 6, 9, 12 hours; details: 5 µM
[15] = The drug is tested on Bacteroides caccae strain: DSM19024 for biotransformation under anaerobic condition. The drug concentrations were measured over 6 timepoints collected between 0 and 12 hours of incubation by liquid-chromatography-coupled mass spectrometry (LC–MS); design: dose 5 uM, timepoint 0, 1.5, 3, 6, 9, 12 hours; details: 5 µM
[16] = as §1, with “the gut metagenome community of A-09 with ENA study accession number: PRJEB31790” for “Streptococcus mitis strain: DSM12643”, “7” for “6”; design: dose 5 uM, timepoint 0, 0.75, 1.5, 3, 6, 9, 12 hours; details: 5 µM
[17] = The drug is tested on Actinomyces naeslundi strain: DSM43013 for biotransformation under anaerobic condition. The drug concentrations were measured over 6 timepoints collected between 0 and 12 hours of incubation by liquid-chromatography-coupled mass spectrometry (LC–MS); design: dose 5 uM, timepoint 0, 1.5, 3, 6, 9, 12 hours; details: actinomyces naeslundii, 5 µM
[18] = The drug is tested on Enterococcus faecalis strain: ATCC29212 for biotransformation under microaerobic condition. The drug concentrations were measured over 6 timepoints collected between 0 and 12 hours of incubation by liquid-chromatography-coupled mass spectrometry (LC–MS); design: dose 5 uM, timepoint 0, 1.5, 3, 6, 9, 12 hours; details: 5 µM
[19] = The drug is tested on Actinomyces graevenitzii strain: DSM15540 for biotransformation under microaerobic condition. The drug concentrations were measured over 6 timepoints collected between 0 and 12 hours of incubation by liquid-chromatography-coupled mass spectrometry (LC–MS); design: dose 5 uM, timepoint 0, 1.5, 3, 6, 9, 12 hours; details: 5 µM
[20] = The drug is tested on Faecalibacterium prausnitzii strain: DSM17677 for biotransformation under anaerobic condition. The drug concentrations were measured over 6 timepoints collected between 0 and 12 hours of incubation by liquid-chromatography-coupled mass spectrometry (LC–MS); design: dose 5 uM, timepoint 0, 1.5, 3, 6, 9, 12 hours; details: faecalibacterium duncaniae, 5 µM
[21] = as §2, with “the gut metagenome community of A-06 with ENA study accession number: PRJEB31790” for “Escherichia coli strain: DSM27469”, “7” for “6”; design: dose 5 uM, timepoint 0, 0.75, 1.5, 3, 6, 9, 12 hours; details: 5 µM
[22] = The drug is tested on Streptococcus mitis strain: DSM12643 for biotransformation under microaerobic condition. The drug concentrations were measured over 6 timepoints collected between 0 and 12 hours of incubation by liquid-chromatography-coupled mass spectrometry (LC–MS); design: dose 5 uM, timepoint 0, 1.5, 3, 6, 9, 12 hours; details: 5 µM
[23] = The drug is tested on Roseburia intestinalis strain: DSM14610 for biotransformation under anaerobic condition. The drug concentrations were measured over 6 timepoints collected between 0 and 12 hours of incubation by liquid-chromatography-coupled mass spectrometry (LC–MS); design: dose 5 uM, timepoint 0, 1.5, 3, 6, 9, 12 hours; details: 5 µM
[24] = The drug is tested on Lactobacillus gasseri strain: DSM20243 for biotransformation under microaerobic condition. The drug concentrations were measured over 6 timepoints collected between 0 and 12 hours of incubation by liquid-chromatography-coupled mass spectrometry (LC–MS); design: dose 5 uM, timepoint 0, 1.5, 3, 6, 9, 12 hours; details: 5 µM
[25] = The drug is tested on Bifidobacterium longum strain: DSM20088 for biotransformation under microaerobic condition. The drug concentrations were measured over 6 timepoints collected between 0 and 12 hours of incubation by liquid-chromatography-coupled mass spectrometry (LC–MS); design: dose 5 uM, timepoint 0, 1.5, 3, 6, 9, 12 hours; details: 5 µM
[26] = The drug is tested on Streptococcus sanguinis strain: DSM20567 for biotransformation under anaerobic condition. The drug concentrations were measured over 6 timepoints collected between 0 and 12 hours of incubation by liquid-chromatography-coupled mass spectrometry (LC–MS); design: dose 5 uM, timepoint 0, 1.5, 3, 6, 9, 12 hours; details: 5 µM
[27] = The drug is tested on Dorea formicigenerans strain: DSM3992 for biotransformation under anaerobic condition. The drug concentrations were measured over 6 timepoints collected between 0 and 12 hours of incubation by liquid-chromatography-coupled mass spectrometry (LC–MS); design: dose 5 uM, timepoint 0, 1.5, 3, 6, 9, 12 hours; details: 5 µM
[28] = The drug is tested on Clostridium bolteae strain: DSM15670 for biotransformation under anaerobic condition. The drug concentrations were measured over 6 timepoints collected between 0 and 12 hours of incubation by liquid-chromatography-coupled mass spectrometry (LC–MS); design: dose 5 uM, timepoint 0, 1.5, 3, 6, 9, 12 hours; details: enterocloster bolteae, 5 µM

Row | Bacterial Biotransformation [1] | Bacterial Biotransformation [2] | Bacterial Biotransformation [3] | Bacterial Biotransformation [4] | Bacterial Biotransformation [5] | Bacterial Biotransformation [6] | Bacterial Biotransformation [7] | Bacterial Biotransformation [8] | Bacterial Biotransformation [9] | Bacterial Biotransformation [10] | Bacterial Biotransformation [11] | Bacterial Biotransformation [12] | Bacterial Biotransformation [13] | Bacterial Biotransformation [14] | Bacterial Biotransformation [15] | Bacterial Biotransformation [16] | Bacterial Biotransformation [17] | Bacterial Biotransformation [18] | Bacterial Biotransformation [19] | Bacterial Biotransformation [20] | Structure (SMILES) | also measured
1 | Compound NOT metabolized | Compound NOT metabolized | Compound metabolized | Compound NOT metabolized | Compound NOT metabolized | Compound NOT metabolized | Compound NOT metabolized | Compound NOT metabolized | Compound NOT metabolized | Compound NOT metabolized | Compound NOT metabolized | Compound NOT metabolized | Compound NOT metabolized | Compound metabolized | Compound NOT metabolized | Compound metabolized | Compound NOT metabolized | Compound NOT metabolized | Compound NOT metabolized | Compound NOT metabolized | C[C@]12C=CC(=O)C=C1CC[C@@H]1[C@@H]2[C@@H](O)C[C@@]2(C)[C@H]1CC[C@]2(O)C(=O)CO [PREDNISOLONE] | Bacterial Biotransformation [21]: Compound metabolized; Bacterial Biotransformation [22]: Compound NOT metabolized; Bacterial Biotransformation [23]: Compound NOT metabolized; Bacterial Biotransformation [24]: Compound NOT metabolized; Bacterial Biotransformation [25]: Compound NOT metabolized; Bacterial Biotransformation [26]: Compound NOT metabolized; Bacterial Biotransformation [27]: Compound NOT metabolized; Bacterial Biotransformation [28]: Compound NOT metabolized
2 | Compound NOT metabolized | Compound NOT metabolized | Compound metabolized | Compound NOT metabolized | Compound NOT metabolized | Compound NOT metabolized | Compound NOT metabolized | Compound NOT metabolized | Compound NOT metabolized | Compound NOT metabolized | Compound NOT metabolized | Compound NOT metabolized | Compound NOT metabolized | Compound metabolized | Compound NOT metabolized | Compound metabolized | Compound NOT metabolized | Compound NOT metabolized | Compound NOT metabolized | Compound metabolized | C[C@]12C=CC(=O)C=C1CC[C@@H]1[C@@H]2C(=O)C[C@@]2(C)[C@H]1CC[C@]2(O)C(=O)CO [PREDNISONE] | Bacterial Biotransformation [21]: Compound metabolized; Bacterial Biotransformation [22]: Compound NOT metabolized; Bacterial Biotransformation [23]: Compound NOT metabolized; Bacterial Biotransformation [24]: Compound NOT metabolized; Bacterial Biotransformation [25]: Compound NOT metabolized; Bacterial Biotransformation [26]: Compound NOT metabolized; Bacterial Biotransformation [27]: Compound NOT metabolized; Bacterial Biotransformation [28]: Compound NOT metabolized
3 | Compound NOT metabolized | Compound NOT metabolized | Compound metabolized | Compound NOT metabolized | Compound NOT metabolized | Compound NOT metabolized | Compound NOT metabolized | Compound NOT metabolized | Compound NOT metabolized | Compound NOT metabolized | Compound NOT metabolized | Compound NOT metabolized | Compound NOT metabolized | Compound NOT metabolized | Compound NOT metabolized | Compound metabolized | Compound NOT metabolized | Compound metabolized | Compound NOT metabolized | Compound NOT metabolized | CNC(=C[N+](=O)[O-])NCCSCc1ccc(CN(C)C)o1 [RANITIDINE] | Bacterial Biotransformation [21]: Compound metabolized; Bacterial Biotransformation [22]: Compound metabolized; Bacterial Biotransformation [23]: Compound NOT metabolized; Bacterial Biotransformation [24]: Compound NOT metabolized; Bacterial Biotransformation [25]: Compound NOT metabolized; Bacterial Biotransformation [26]: Compound NOT metabolized; Bacterial Biotransformation [27]: Compound NOT metabolized; Bacterial Biotransformation [28]: Compound NOT metabolized
